Reference: ChEMBL document CHEMBL4303122, “Identification of potential treatments for COVID-19 through artificial intelligence-enabled phenomic analysis of human cells infected with SARS-CoV-2” (2020)
“And” between values parts separate entries of the source, which are not always exact repeats. Equal values may be shown once. Where a name gives a salt, the structure may show the parent alone.

What was measured:
SARS-CoV-2 [1] = experiment: Antiviral activity against SARS-CoV-2 (USA-WA1/2020 strain) measured by imaging in Vero cells at MOI 0.08 after 48 hrs (reported as hit score from 0-1 for on-disease vs off-disease activity: scores >0.6 considered hits); format: functional, Chlorocebus sabaeus
SARS-CoV-2 [2] = experiment: Antiviral activity against SARS-CoV-2 (USA-WA1/2020 strain) measured by imaging in HRCE cells at MOI 0.4 after 96 hrs (reported as hit score from 0-1 for on-disease vs off-disease activity: scores >0.6 considered hits); format: functional; settings: Homo sapiens

OC[C@H]1NC[C@H](O)[C@@H](O)[C@H]1O
Hit score (SARS-CoV-2 [1]): 0.1704

CC(C)CN(C[C@@H](O)[C@H](Cc1ccccc1)NC(=O)O[C@H]1CO[C@H]2OCC[C@H]21)S(=O)(=O)c1ccc(N)cc1
Hit score (SARS-CoV-2 [1]): 0.153

NC(=O)c1nc(F)cnc1O
Hit score (SARS-CoV-2 [1]): 0.1243

N[C@@H](CCN[C@@H](CCN1CC[C@H]1C(=O)O)C(=O)O)C(=O)O
Hit score (SARS-CoV-2 [1]): 0.1086

CCC(CC)COC(=O)[C@H](C)N[P@](=O)(OC[C@H]1O[C@@](C#N)(c2ccc3c(N)ncnn23)[C@H](O)[C@@H]1O)Oc1ccccc1
Hit score (SARS-CoV-2 [1]): 0.5934

O=S(=O)(c1cccc2c(Cl)cccc12)N1CCCNCC1
Hit score (SARS-CoV-2 [1]): 0.1073

CC(C)(C)NC(=O)[C@@H]1CN(Cc2cccnc2)CCN1C[C@@H](O)C[C@@H](Cc1ccccc1)C(=O)N[C@H]1c2ccccc2C[C@H]1O.O
Hit score (SARS-CoV-2 [1]): 0.2525

CCOC(=O)[C@H]1O[C@@H]1C(=O)N[C@@H](CC(C)C)C(=O)NCCC(C)C [ALOXISTATIN]
Hit score (SARS-CoV-2 [1]): 0.4403

CN(C)C(=O)COC(=O)Cc1ccc(OC(=O)c2ccc(NC(=N)N)cc2)cc1 [CAMOSTAT]
Hit score (SARS-CoV-2 [1]): 0.2137

CCN(CC)CCCC(C)Nc1ccnc2cc(Cl)ccc12 (configuration not stated) [CHLOROQUINE]
Hit score (SARS-CoV-2 [1]): 0.6704

CC(C)c1nc(CN(C)C(=O)N[C@@H](CCN2CCOCC2)C(=O)N[C@H](CC[C@H](Cc2ccccc2)NC(=O)OCc2cncs2)Cc2ccccc2)cs1 [COBICISTAT]
Hit score (SARS-CoV-2 [1]): 0.2397

COC(=O)/C=C/C(=O)OC [DIMETHYL FUMARATE]
Hit score (SARS-CoV-2 [1]): 0.1078

N#C[C@@]1(c2ccc3c(N)ncnn23)O[C@H](CO)[C@@H](O)[C@H]1O [GS-441524]
Hit score (SARS-CoV-2 [1]): 1

O=C(CCCN1CCC(O)(c2ccc(Cl)cc2)CC1)c1ccc(F)cc1 [HALOPERIDOL]
Hit score (SARS-CoV-2 [1]): 0.07542

CCN(CCO)CCCC(C)Nc1ccnc2cc(Cl)ccc12.O=S(=O)(O)O (configuration not stated) [HYDROXYCHLOROQUINE SULFATE]
Hit score (SARS-CoV-2 [1]): 0.5553

CC[C@H](Nc1ncnc2[nH]cnc12)c1nc2cccc(F)c2c(=O)n1-c1ccccc1 [IDELALISIB]
Hit score (SARS-CoV-2 [1]): -0.08519

CC(C)Cn1cnc2c(N)nc3ccccc3c21 [IMIQUIMOD]
Hit score (SARS-CoV-2 [1]): 0.3174

COc1ccc2c(c1)c(CC(=O)O)c(C)n2C(=O)c1ccc(Cl)cc1 [INDOMETHACIN]
Hit score (SARS-CoV-2 [1]): 0.1024

Cc1cccc(C)c1OCC(=O)N[C@@H](Cc1ccccc1)[C@@H](O)C[C@H](Cc1ccccc1)NC(=O)[C@H](C(C)C)N1CCCNC1=O [LOPINAVIR]
Hit score (SARS-CoV-2 [1]): 0.1843

C[C@H]1C[C@@H]2[C@H]([C@@H](O)C[C@@]3(C)[C@H]2CC[C@]3(O)C(=O)COC(=O)CCC(=O)[O-])[C@@]2(C)C=CC(=O)C=C12.[Na+] [METHYLPREDNISOLONE SODIUM SUCCINATE]
Hit score (SARS-CoV-2 [1]): 0.2294

CCC(CC)O[C@@H]1C=C(C(=O)O)C[C@H](N)[C@H]1NC(C)=O [OSELTAMIVIR CARBOXYLATE]
Hit score (SARS-CoV-2 [1]): 0.1922

C1=N/C2=N/c3ccc(OCCN4CCCC4)c(c3)COC/C=C/COCc3cccc(c3)C(=C1)N2 [PACRITINIB]
Hit score (SARS-CoV-2 [1]): 0.2418

Nc1nc(O)c2ncn(CCC(CO)CO)c2n1 [PENCICLOVIR]
Hit score (SARS-CoV-2 [1]): 0.1283

OC[C@H]1O[C@@H](Oc2cc(O)cc(/C=C/c3ccc(O)cc3)c2)[C@H](O)[C@@H](O)[C@@H]1O [PICEID]
Hit score (SARS-CoV-2 [1]): 0.06165

C=C[C@H]1CN2CC[C@H]1C[C@H]2[C@H](OC(=O)OCC)c1ccnc2ccc(OC)cc12 [QUININE ETHYLCARBONATE]
Hit score (SARS-CoV-2 [1]): 0.1489

C=C[C@H]1CN2CC[C@H]1C[C@H]2[C@H](O)c1ccnc2ccc(OC)cc12 [QUININE]
Hit score (SARS-CoV-2 [1]): 0.2113

NC(=O)c1ncn([C@@H]2O[C@H](CO)[C@@H](O)[C@H]2O)n1 [RIBAVIRIN]
Hit score (SARS-CoV-2 [1]): 0.1047

CC(C)c1nc(CN(C)C(=O)N[C@H](C(=O)N[C@@H](Cc2ccccc2)C[C@H](O)[C@H](Cc2ccccc2)NC(=O)OCc2cncs2)C(C)C)cs1 [RITONAVIR]
Hit score (SARS-CoV-2 [1]): 0.1477

CC[C@H]1OC(=O)[C@@](C)(F)C(=O)[C@H](C)[C@@H](O[C@@H]2O[C@H](C)C[C@H](N(C)C)[C@H]2O)[C@](C)(OC)C[C@@H](C)C(=O)[C@H](C)[C@H]2N(CCCCn3cc(-c4cccc(N)c4)nn3)C(=O)O[C@]12C [SOLITHROMYCIN]
Hit score (SARS-CoV-2 [1]): 0.6032

CC(C)OC(=O)OCOP(=O)(CO[C@H](C)Cn1cnc2c(N)ncnc21)OCOC(=O)OC(C)C.O=C(O)/C=C/C(=O)O [TENOFOVIR DISOPROXIL FUMARATE]
Hit score (SARS-CoV-2 [1]): 0.1962

CC1=CC(=O)C(C(C)C)=CC1=O [THYMOQUINONE]
Hit score (SARS-CoV-2 [1]): 0.2773

CCOC(=O)c1c(CSc2ccccc2)n(C)c2cc(Br)c(O)c(CN(C)C)c12 [UMIFENOVIR]
Hit score (SARS-CoV-2 [1]): 0.1334

Eplivanserin hemifumarate
Hit score (SARS-CoV-2 [2]): -0.0126

FLUPENTIXOL
Hit score (SARS-CoV-2 [2]): 0.12

GADODIAMIDE
Hit score (SARS-CoV-2 [2]): 0.193

MONOCTANOIN
Hit score (SARS-CoV-2 [2]): -0.0148

OXALIPLATIN
Hit score (SARS-CoV-2 [2]): 0.0878

SPIRAMYCIN
Hit score (SARS-CoV-2 [2]): 0.139 and 0.136

THIMEROSAL
Hit score (SARS-CoV-2 [2]): -0.0445

hemomex-s
Hit score (SARS-CoV-2 [2]): 0.064

perchlozone
Hit score (SARS-CoV-2 [2]): 0.0874

stetaderm
Hit score (SARS-CoV-2 [2]): 0.101
